# Measurements published in US20070092969A1, “Integrator system and method for rapidly determining effectiveness of a germicidal treatment” (priority 2005, published 2007).
# Where two headings read alike, the source gives them in different places.
# System: biological indicators
# Conditions: for Biological Indicator Results: STERRAD 50, 6 minutes contact, plasma 400 watts
# Description: The biological indicator is placed into the sterilizer with the equipment to be sterilized. At the end of the sterilization process, the biological indicator is removed from the sterilizer, and the carrier is immersed in a sterile culture medium. The culture medium and carrier are incubated for a predetermined time at an appropriate temperature. At the end of the incubation period, it is determined whether any microorganisms have grown in the growth medium. If there is no growth of microorganisms in the growth medium, it is assumed that the equipment in the sterilizer has been properly sterilized. If microorganism growth is observed, the sterilization process was not effective, and the articles in the sterilizer are rejected for use. The growth of microorganisms is determined through a signal such as the generation of turbidity or a color change in a pH indicator due to a pH change from byproducts of cell growth in the medium. Biological indicators are described, for example, in U.S. Pat. Nos. 5,552,320 and 6,436,659, both of which are incorporated herein by reference in their entirety.
# A series of integrators was prepared by contacting paper disks with an aqueous solution of arginine. The integrators were placed in a STERRAD® 50 sterilizer with a load of equipment to be sterilized and several biological indicators. The paper disks are absorbing substrates.
# The sterilizer was evacuated to 0.8 torr. Plasma was produced in the chamber for 15 minutes to condition the load. The sterilizer was evacuated further to 0.4 torr, and hydrogen peroxide was injected and contacted with the load, integrators, and biological indicators for 6 minutes.
# The sterilizer was vented with air for 2 minutes. The sterilizer was evacuated again to 0.5 torr, and plasma was produced for an additional 2 minutes. The plasma power was 400 watts for both plasma exposures.
smiles,measurement,setting,value
"OO [Hydrogen Peroxide, hydrogen peroxide]",Biological indicator (BI) result,Hydrogen peroxide injection of 300 μL in the STERRAD 50 sterilizer,negative
same,Biological Indicator Results,Hydrogen peroxide injection volume 100 μL,100% positive
same,Biological Indicator Results,Hydrogen peroxide injection volume 250 μL,40% positive
same,Biological Indicator Results,Hydrogen peroxide injection volume 400 μL,0% positive
same,Biological Indicator Results,Hydrogen peroxide injection volume 500 μL,0% positive
